The values below come from publication PMC9609924, “In Vitro Characterization of Inhibitors for Lung A549 and Leukemia K562 Cell Lines from Fungal Transformation of Arecoline Supported by In Silico Docking to M3-mAChR and ADME Prediction” (Pharmaceuticals, 2022).

Structures can show the parent of a compound that is named as a salt. Where two headings read alike, the source gives them in different places. Bounds are passed on as bounds.

In one test the test system is leukemia K562 cell line. The test can be described thus: MTT cytotoxicity assay, leukemia K562. The settings on record: Homo sapiens, K562, 48 h, read-out: Cytotoxicity IC50 ± SD, Leukemia Cancer Cell K562. How it is done: (§1) Cell lines were obtained from the American Type Culture Collection (ATCC). Cells were cultured using Dulbecco’s Modified Eagle’s Medium (DMEM) (Invitrogen/Life Technologies, Waltham, MA, USA) supplemented with 10% fetal bovine serum (FBS, Hyclone, Logan, UT, USA), 10 µg/mL of insulin (Sigma Aldrich, St. Louis, MO, USA) and 1% mixture of penicillin and streptomycin. After incubation for 48 h with the isolated compounds, the viability of cells was measured using an MTT assay to determine the toxic concentration for each compound using the microplate reader according to the published procedures.
(Formazan colour is commonly taken as a measure of viable cells.)

Test [1] has as its system non-small-cell lung cancer A549 cell line. The experiment in a line: cells. The settings on record: Homo sapiens, A549, 48 h, read-out: Cytotoxicity IC50 ± SD, Non-Small-Cell Lung Cancer A549. The method, then: as §1
For test [2], the system named is leukemia cancer K562 cells. The test can be described thus: Flow cytometry of DNA content, cell cycle distribution, K562. Format: cell-based, human. The settings on record: for %Pre-G1 (sub-G1) cells, cell cycle distribution: untreated control 1.68%; for %G2/M cells, cell cycle distribution: untreated control 12.59%; for %S cells, cell cycle distribution: untreated control 42.57%; for %G0-G1 cells, cell cycle distribution: untreated control 44.84%. The method, then: (§2) For cell cycle analysis, a propidium iodide flow cytometry kit (ab139418, Abcam, Cambridge, UK) was used. For apoptosis, we used an annexin V apoptosis kit, which is composed of annexin V-FITC (fluorescein isothiocyanate), 1X binding buffer, and propidium iodide. Detection was conducted by measuring DNA content using a flow cytometer.

Test [3] deals with leukemia cancer K562 cells. The experiment in a line: Annexin V-FITC/propidium iodide apoptosis detection, K562. It counts as cell-based, human. The settings on record: for Late apoptosis: untreated control 0.04%; for Early apoptosis: untreated control 0.37%; for Necrosis: untreated control 1.27%; for Total cell death: untreated control 1.68%. The method, then: as §2
Another test relates to normal lung cell WI38. The test can be described thus: MTT cytotoxicity assay, normal lung cell WI38. It counts as cell-based. The settings on record: for IC50: Homo sapiens, read-out: Normal Lung Cell Line WI38 IC50 ± SD. The method, then: (§3) The selectivity index identifies the selectivity of the tested compounds toward the cancer cell line and is calculated by dividing the IC50 against the normal cell line by the IC50 against the cancer cells.

The test system of test [4] is normal blood cell PCS-800-016. The test can be described thus: MTT cytotoxicity assay, normal blood cell PCS-800-016. Format: cell-based. The settings on record: for IC50: read-out: Normal Blood Cell PCS-800-016 IC50 ± SD. The method, then: as §3
For test [5], the system named is non-small-cell lung cancer A549 cells. The test can be described thus: Flow cytometry of DNA content, cell cycle distribution, A549. It counts as cell-based. How it is done: (§4) Furthermore, compound 1 induced early and late apoptosis and necrosis (5.09%, 10.38%, and 13.14%, respectively) compared to the untreated cells (0.29%, 0.18%, and 0.79, respectively).
as §2
Background: In flow cytometry, cells or beads pass a laser one at a time.

For test [6] the test system is unchanged. The experiment in a line: Annexin V-FITC/propidium iodide apoptosis detection, A549. It counts as cell-based. How it is done: as §4, §2

In the case of `COc1cccc2c1C(=O)c1c(O)c3c(c(O)c1C2=O)C[C@@](O)(C(=O)CO)C[C@@H]3O[C@H]1C[C@H](N)[C@H](O)[C@H](C)O1` [Doxorubicin, reference compound], the values for the IC50 (with leukemia K562 cell line; in test [1]) were 6.94 ± 0.21 µM and 5.05 ± 0.13 µM, respectively.
The like results for `C[N+]1([O-])CCC(O)CC1` (stereo not drawn) [Compound 2, 4-Hydroxy-1-methylpiperidine 1-oxide] were, in that order, over 100 µM and over 100 µM.
For `COC(=O)C1=CCCN(C)C1` [Arecoline hydrobromide, reference compound], in that order: 15.3 ± 1.08 µM and 11.7 ± 0.71 µM.
Turning to `O=C(O)c1cccnc1` [Compound 5, Pyridine-3-carboxylic acid], in test [2], the “Phase of cell cycle arrest” value is listed as “S phase”; the “%Pre-G1 (sub-G1) cells, cell cycle distribution” value (“%Pre-G1 (sub-G1) cells” below) was 31.74%; the “%G2/M cells, cell cycle distribution” value worked out at 10.68%; the “%S cells, cell cycle distribution” value worked out at 52.91%. Further, in test [2], the “%G0-G1 cells, cell cycle distribution” value is 36.41%. In test [3], the Late apoptosis amounted to 11.74%, the Early apoptosis came out at 2.94%, the Necrosis came out at 17.06% and the Total cell death came out at 31.74%. For the same molecule, the IC50 with normal lung cell WI38 (WI-38, MTT, 48 h incubation) worked out at 13.9 ± 0.69 µM. Further, in the test with leukemia K562 cell line, the IC50 is 2.15 ± 0.15 µM. The IC50 in test [1] amounted to 3.29 ± 0.2 µM. For the same molecule, the IC50 in test [4] (MTT, 48 h incubation) came out at 20.2 ± 1.01 µM.
Consider `CN1CCC=C(C(=O)O)C1` [Compound 4, 1-Methyl-1,2,5,6-tetrahydropyridine-3-carboxylic acid], for which the IC50 in the test with leukemia K562 cell line came to 67.3 ± 0.53 µM; in test [1], 90.9 ± 0.59 µM.
As for `O=C(O)C1CCCNC1` [Compound 3, D-piperidine-3-carboxylic acid], in test [2], the “Phase of cell cycle arrest” value was “S phase”; the “%Pre-G1 (sub-G1) cells” value is recorded as 43.22%; the “%G2/M cells, cell cycle distribution” value is listed as 7.48%; the “%S cells, cell cycle distribution” value came out at 57.23%. Besides, the “%G0-G1 cells, cell cycle distribution” value in test [2] stood at 35.29%. In test [3], this molecule had a Late apoptosis of 30.35%, an Early apoptosis of 2.33%, a Necrosis of 10.54% and a Total cell death of 43.22%. The IC50 in the test on normal lung cell WI38 (WI-38, 48 h) is 26.6 ± 1.33 µM. In addition, the IC50 in the test on leukemia K562 cell line was 3.33 ± 0.24 µM. Besides, in test [1], the IC50 was 7.33 ± 0.45 µM. The IC50 in test [4] (48 h) was 37.9 ± 1.89 µM.
As for `CN[C@@H]1C[C@H]2O[C@@](C)([C@@H]1OC)n1c3ccccc3c3c4c(c5c6ccccc6n2c5c31)C(=O)NC4` [Staurosporine, reference compound], the half-maximal inhibitory concentration (IC50) in the test with leukemia K562 cell line is 5.07 ± 0.36 µM.
In the case of `CN1CCC(O)CC1` [Compound 1, 1-Methylpiperidin-4-ol], in test [5], the “Phase of cell cycle arrest” value is “G2/M phase”. In addition, the “%Pre-G1 (sub-G1) cells” value in test [5] (untreated control 1.26%) came to 28.61%. In test [5] (untreated control 8.09%), the “%G2/M cells, cell cycle distribution” value was 24.88%. In addition, the “%S cells, cell cycle distribution” value in test [5] (untreated control 35.85%) is reported as 31.01%. Besides, the “%G0-G1 cells, cell cycle distribution” value in test [5] (untreated control 56.06%) turned out to be 44.11%. The 50% inhibitory concentration (IC50) in the test on normal lung cell WI38 (WI-38, MTT, 48 h incubation) was determined as 18.3 ± 0.91 µM. In addition, the “SI (Lung), selectivity index” value with normal lung cell WI38 (IC50 against normal WI38 divided by IC50 against A549) was determined as 5.93. In the test on leukemia K562 cell line, the IC50 was determined as 1.56 ± 0.11 µM. Moreover, in test [6] (A549, versus untreated cells), the “Fold increase of early apoptosis than control” value amounted to 17.55 fold, the “Fold increase of late apoptosis than control” value is reported as 57.67 fold, the “Fold increase of necrosis than control” value stood at 16.63 fold and the “Fold increase of total cell death than control” value is reported as 22.71 fold. For the same molecule, the Late apoptosis in test [6] (A549, untreated control 0.18%) is on record as 10.38%. This molecule also had an Early apoptosis in test [6] (A549, untreated control 0.29%) of 5.09%. In test [6] (A549, untreated control 0.79%), the Necrosis amounted to 13.14%. Also, in test [6] (A549, untreated control 1.26%), the Total cell death was 28.61%. Moreover, the IC50 in test [1] amounted to 3.08 ± 0.19 µM. In test [4] (IC50 against normal PCS-800-016 divided by IC50 against K562), the “SI (Blood Cell), selectivity index” value is on record as 6.32. In addition, in test [4] (MTT, 48 h incubation), the IC50 came to 9.87 ± 0.49 µM.

The term IC50 denotes the midpoint of a concentration-inhibition curve.
